Measured values taken from patent US11357779B2 (G1 Therapeutics, Inc., priority 2018, dated 2022).
Like-named read-outs stand apart in the source and are kept apart here.

Assay: Noncompartmental pharmacokinetic parameters (Cmax, Tmax, AUC, Racc) in QD and BID cohorts of Form B
Format: in vivo, human
Conditions: human, plasma, oral
Protocol: Analysis of plasma concentration versus time data for calculation of standard pharmacokinetic (PK) parameters following oral administration was conducted using Phoenix WinNonlin version 6.3 using actual blood sampling times.
The following pharmacokinetic parameters were calculated from the concentration versus time data obtained in Example 1 for each of the above QD (200 mg, 300 mg, 400 mg, 500 mg, or 650 mg dosed) and BID (100 mg, 150 mg, or 200 mg doses) Form B of Compound II dosage cohorts: • Cmax—the observed peak plasma concentration determined from the plasma concentration versus time data obtained on Day 1 and Day 29, as applicable; • Tmax—the time to reach the observed peak plasma concentration from the plasma concentration versus time data obtained on Day 1 and Day 29, as applicable; • AUC—area under the plasma concentration versus time curve during a dosing interval on Day 1 and Day 29, as applicable; and • Racc—accumulation ratio calculated as AUCDay 29/AUCDay 1.

## CC(C)N1CCN(c2ccc(Nc3ncc4cc5n(c4n3)C3(CCCCC3)CNC5=O)nc2)CC1 [Compound I, 2′-((5-(4-isopropylpiperazin-1-yl)pyridin-2-yl)amino)-7′,8′-dihydro-6′H-spiro[cyclohexane-1,9′-pyrazino[1′,2′:1,5]pyrrolo[2,3-d]pyrimidin]-6′-one]
100 mg, Cohort 6, 100 mg BID of Form B, Day 1, read-out: AUClast, Mean
  AUC(0-t): 59.7 ng·h/mL
100 mg, Cohort 6, 100 mg BID of Form B, Day 1, read-out: AUClast, Median
  AUC(0-t): 53.1 ng·h/mL
100 mg, Cohort 6, 100 mg BID of Form B, Day 1, read-out: Cmax, Mean
  Cmax: 10.2 ng/mL
100 mg, Cohort 6, 100 mg BID of Form B, Day 1, read-out: Cmax, Median
  Cmax: 8.95 ng/mL
100 mg, Cohort 6, 100 mg BID of Form B, Day 1, read-out: Tmax, Mean
  Tmax: 3.17 h
100 mg, Cohort 6, 100 mg BID of Form B, Day 1, read-out: Tmax, Median
  Tmax: 3 h
100 mg, Compound I, 100 mg BID of Form B, Cohort 6, Day 29, read-out: AUClast (Mean)
  AUC(0-t): 101 ng·h/mL
100 mg, Compound I, 100 mg BID of Form B, Cohort 6, Day 29, read-out: AUClast (Median)
  AUC(0-t): 88.2 ng·h/mL
100 mg, Compound I, 100 mg BID of Form B, Cohort 6, Day 29, read-out: Cmax (Mean)
  Cmax: 12.3 ng/mL
100 mg, Compound I, 100 mg BID of Form B, Cohort 6, Day 29, read-out: Cmax (Median)
  Cmax: 11.8 ng/mL
100 mg, Compound I, 100 mg BID of Form B, Cohort 6, Day 29, read-out: Tmax (Mean)
  Tmax: 4.4 h
100 mg, Compound I, 100 mg BID of Form B, Cohort 6, Day 29, read-out: Tmax (Median)
  Tmax: 3 h
150 mg, Compound I, 150 mg BID of Form B, Cohort 7, Day 1, read-out: AUClast (Mean)
  AUC(0-t): 130 ng·h/mL
150 mg, Compound I, 150 mg BID of Form B, Cohort 7, Day 1, read-out: AUClast (Median)
  AUC(0-t): 141 ng·h/mL
150 mg, Compound I, 150 mg BID of Form B, Cohort 7, Day 1, read-out: Cmax (Mean)
  Cmax: 21.7 ng/mL
150 mg, Compound I, 150 mg BID of Form B, Cohort 7, Day 1, read-out: Cmax (Median)
  Cmax: 24.6 ng/mL
150 mg, Compound I, 150 mg BID of Form B, Cohort 7, Day 1, read-out: Tmax (Mean)
  Tmax: 3.67 h
150 mg, Compound I, 150 mg BID of Form B, Cohort 7, Day 1, read-out: Tmax (Median)
  Tmax: 4 h
150 mg, Compound I, 150 mg BID of Form B, Cohort 7, Day 29, read-out: AUClast (Mean)
  AUC(0-t): 455 ng·h/mL
150 mg, Compound I, 150 mg BID of Form B, Cohort 7, Day 29, read-out: AUClast (Median)
  AUC(0-t): 334 ng·h/mL
150 mg, Compound I, 150 mg BID of Form B, Cohort 7, Day 29, read-out: Cmax (Mean)
  Cmax: 50.2 ng/mL
150 mg, Compound I, 150 mg BID of Form B, Cohort 7, Day 29, read-out: Cmax (Median)
  Cmax: 36.9 ng/mL
150 mg, Compound I, 150 mg BID of Form B, Cohort 7, Day 29, read-out: Tmax (Mean)
  Tmax: 4 h
150 mg, Compound I, 150 mg BID of Form B, Cohort 7, Day 29, read-out: Tmax (Median)
  Tmax: 4 h
200 mg, Cohort 1, 200 mg QD of Form B, Day 1, read-out: AUClast, Mean
  AUC(0-t): 215 ng·h/mL
200 mg, Cohort 1, 200 mg QD of Form B, Day 1, read-out: AUClast, Median
  AUC(0-t): 232 ng·h/mL
200 mg, Cohort 1, 200 mg QD of Form B, Day 1, read-out: Cmax, Mean
  Cmax: 25.5 ng/mL
200 mg, Cohort 1, 200 mg QD of Form B, Day 1, read-out: Cmax, Median
  Cmax: 27 ng/mL
200 mg, Cohort 1, 200 mg QD of Form B, Day 1, read-out: Tmax, Mean
  Tmax: 4.17 h
200 mg, Cohort 1, 200 mg QD of Form B, Day 1, read-out: Tmax, Median
  Tmax: 4 h
200 mg, Compound I, 200 mg BID of Form B, Cohort 7, Day 1, read-out: AUClast (Mean)
  AUC(0-t): 118 ng·h/mL
200 mg, Compound I, 200 mg BID of Form B, Cohort 7, Day 1, read-out: AUClast (Median)
  AUC(0-t): 125 ng·h/mL
200 mg, Compound I, 200 mg BID of Form B, Cohort 7, Day 1, read-out: Cmax (Mean)
  Cmax: 17.3 ng/mL
200 mg, Compound I, 200 mg BID of Form B, Cohort 7, Day 1, read-out: Cmax (Median)
  Cmax: 17.6 ng/mL
200 mg, Compound I, 200 mg BID of Form B, Cohort 7, Day 1, read-out: Tmax (Mean)
  Tmax: 5 h
200 mg, Compound I, 200 mg BID of Form B, Cohort 7, Day 1, read-out: Tmax (Median)
  Tmax: 5 h
200 mg, Compound I, 200 mg BID of Form B, Cohort 8, Day 29, read-out: AUClast (Mean)
  AUC(0-t): 197 ng·h/mL
200 mg, Compound I, 200 mg BID of Form B, Cohort 8, Day 29, read-out: AUClast (Median)
  AUC(0-t): 205 ng·h/mL
200 mg, Compound I, 200 mg BID of Form B, Cohort 8, Day 29, read-out: Cmax (Mean)
  Cmax: 26.3 ng/mL
200 mg, Compound I, 200 mg BID of Form B, Cohort 8, Day 29, read-out: Cmax (Median)
  Cmax: 30.5 ng/mL
200 mg, Compound I, 200 mg BID of Form B, Cohort 8, Day 29, read-out: Tmax (Mean)
  Tmax: 6.67 h
200 mg, Compound I, 200 mg BID of Form B, Cohort 8, Day 29, read-out: Tmax (Median)
  Tmax: 4 h
200 mg, Compound I, 200 mg QD of Form B, Cohort 1, Day 29, read-out: AUClast (Mean)
  AUC(0-t): 229 ng·h/mL
200 mg, Compound I, 200 mg QD of Form B, Cohort 1, Day 29, read-out: AUClast (Median)
  AUC(0-t): 227 ng·h/mL
200 mg, Compound I, 200 mg QD of Form B, Cohort 1, Day 29, read-out: Cmax (Mean)
  Cmax: 20.4 ng/mL
200 mg, Compound I, 200 mg QD of Form B, Cohort 1, Day 29, read-out: Cmax (Median)
  Cmax: 21.3 ng/mL
200 mg, Compound I, 200 mg QD of Form B, Cohort 1, Day 29, read-out: Tmax (Mean)
  Tmax: 4.2 h
200 mg, Compound I, 200 mg QD of Form B, Cohort 1, Day 29, read-out: Tmax (Median)
  Tmax: 4 h
300 mg, Cohort 2, 300 mg QD of Form B, Day 1, upon exclusion of data for patient that vomited immediately after dosing, read-out: AUClast, Mean
  AUC(0-t): 567 ng·h/mL
